Data set [1] deals with HUVEC (Normal human endothelial cell).
A further data set relates to CaCo2. Kind of data set: In vitro cytotoxicity, CaCo2 colon line. The conditions noted are these: Homo sapiens, Caco-2; Caco2, Table 3; read-out: CI50% (the source's name). It counts as cell-based.
In another data set the test system is BxPC3. Kind of data set: In vitro cytotoxicity, BxPC3 pancreas line. It counts as cell-based. The settings on record: Homo sapiens, BXPC-3; BxPC3, Table 3; read-out: CI50% (the source's name).
For another data set, the system named is PANC1. Kind of data set: In vitro cytotoxicity, PANC1 pancreas line. It counts as cell-based. The settings on record: Homo sapiens, PANC-1; PANC1, Table 3; read-out: CI50% (the source's name).
The subject of another data set is CRO2B. Kind of data set: In vitro cytotoxicity, CRO2B carcinoid line. It counts as cell-based. The settings on record: Homo sapiens, Table 3, read-out: CI50% (the source's name).
Another data set concerns DLD1. Kind of data set: Antitumor activity, DLD1 line. The settings on record: Homo sapiens, DLD-1; DLD1, Table 3; read-out: CI50% (the source's name). The class given is cell-based.
The test system of the next data set is HT-29. Kind of data set: In vitro cytotoxicity, HT-29 colon line. It counts as cell-based. The settings on record: Homo sapiens, HT-29; HT29, Table 3; read-out: CI50% (the source's name).
A further data set relates to Colo205. Kind of data set: In vitro cytotoxicity, Colo205 colon line. The class given is cell-based. The conditions noted are these: Homo sapiens, COLO 205; Colo205, Table 3; read-out: CI50% (the source's name).
Another data set concerns MIAP2. Kind of data set: In vitro cytotoxicity, MIAP2 pancreas line. The class given is cell-based. The conditions noted are these: Homo sapiens; MIAP2, Table 3; read-out: CI50% (the source's name).
The subject of data set [2] is lines of human carcinoma tested. Kind of data set: In vitro cytotoxicity against the panel of human carcinoma lines. The conditions noted are these: compared with compound 6.
For the next data set, the system named is SW620. Kind of data set: In vitro cytotoxicity, SW620 colon line. The class given is cell-based. The settings on record: Homo sapiens, SW-620; SW620, Table 3; read-out: CI50% (the source's name).
In another data set the test system is MCF7. Kind of data set: Cytotoxicity, MCF7 breast line. The class given is cell-based. The settings on record: Homo sapiens; MCF7 (breast cancer); read-out: CI50 (the source's name).
Another data set deals with UACC62. Kind of data set: Cytotoxicity, UACC62 melanoma line. The conditions noted are these: Homo sapiens, UACC-62, read-out: CI50 (the source's name). The class given is cell-based.
For another data set, the system named is NCIADR. Kind of data set: Cytotoxicity, NCIADR multiple drug resistant ovary line. The class given is cell-based. The settings on record: Homo sapiens, NCI/ADR-RES, read-out: CI50 (the source's name).
In a further data set the test system is NCI460. Kind of data set: Cytotoxicity, NCI460 lung line. The class given is cell-based. The conditions noted are these: Homo sapiens, NCI-460, read-out: CI50 (the source's name).
Data set [3] concerns SCC25 (squamous-cell carcinoma of the oral cavity). Kind of data set: Cytotoxicity, SCC25 cells. It counts as cell-based. The settings on record: Homo sapiens, SCC-25, read-out: CI50% tumor cells.
Data set [4] relates to SCC9 (squamous-cell carcinoma of the oral cavity). Kind of data set: Cytotoxicity, SCC9 cells. The class given is cell-based. The conditions noted are these: Homo sapiens, SCC-9, read-out: CI50% tumor cells.
Data set [5] has as its system HUVEC (Normal human endothelial cell). Kind of data set: Cytotoxicity, HUVEC normal cells.
In data set [6] the test system is 4T1 (murine mammary carcinoma). Kind of data set: Cytotoxicity, 4T1 cells. The settings on record: Mus musculus, read-out: CI50% tumor cells. The class given is cell-based.
Data set [7] has as its system FN-1 (Normal human fibroblast). Kind of data set: Cytotoxicity, normal human fibroblasts. It counts as cell-based. The settings on record: FN-1. The protocol:
Fragments of cutaneous biopsies from patients treated by the Dermatology Service of the Clinic Hospital of the Medicine School of USP were removed for routine diagnostic procedures and part of the surgical flap edge immersed in Eagle culture medium modified by Dulbecco's (DMEM, Sigma Chemical Co., St. Louis, Mo., USA) added of 10% fetal bovine serum (Cultilab Ltda., Campinas-SP), […] and 50 ng/ml amphotericin B at 4 C and kept at 4 C for a maximum of 16 hours.
The fragments were washed three times in the same solution, cut into fragments of approximately 1 mm^3 and transferred to 25 cm^2 culture flasks, kept at 37 C, humid atmosphere containing 5% CO2. Cell growth monitored daily, photo documented in inversion microscopy and culture medium exchanged every 2 or 3 days, according to cell metabolism.
After 7 days, the first change in the culture medium of the flasks was performed once cell growth started, the culture medium was renewed every three days. Plastic flasks were used for cultivation of 25 cm^2 of cultivated area, where more 3 ml of DME medium containing 10% fetal bovine serum and 1% of antibiotic-antimycotic solution will be added.
The cell viability test was performed to verify the effect of the various compounds on the various concentrations previously established: on the lines of tumor cells B16F10 and normal human fibroblasts. The MTT method consists of a cell viability test that measures the activity of mitochondrial dehydrogenase. MTT is a colorimetric method based on the capacity of living cells to reduce salt 3-(4,5-di-methylazole-2-IL)-2,5-diphenyl tetrazolium bromide in the formazan product (Mosmann, 1983). […]
The 96-well plate was read by the spectrophotometer (Spectra MAX-190) using the wavelength of 570 nm. The results were analyzed by absorbance of each well. The percentage of viability was obtained using the following formula: [(Absorbance of treated cells/Absorbance of untreated cells)×100]. […]

Data set [8] relates to MCF-7 (human mammary adenocarcinoma). Kind of data set: Cytotoxicity, MCF-7 cells. The class given is cell-based. The conditions noted are these: MCF7, read-out: CI50% tumor cells.

Read-outs that look alike come from different tables or passages of the source.

For “5-(chloro-2-(3,4-dimethoxybenzyl)-5-(4-ethynyl-2,3,4,6-benzil-β-D-galactopyranoside)-penta-2,4-dienonitrile [Compound 21A]”, in data set [1], the “CI50% Normal cells” value stood at 23.09 µM.
As to `O=CC=C(Cl)c1ccccc1OC(=O)c1ccccc1` [Compound 5, 3-Chloro-3-(2-benzoyloxy-phenyl)propenal], the IC50 was 163 µM in the data set with CaCo2; 160 µM in the data set with BxPC3; 177 µM with PANC1; 149 µM in the data set on CRO2B; 127 µM in the data set with DLD1; 92 µM in the data set with HT-29. In addition, the IC50 in the data set on Colo205 came to 149 µM; in the data set with MIAP2 it was 156 µM; with SW620, 134 µM. Moreover, in data set [2], the “cytotoxic activity relative to compound 6” value is on record as “seven times lower”.
For `CC(=O)c1ccccc1OCC=C(C)C` [Compound 9, 2-(3-methylbut-2-enyl-oxyi)acetophenone], the IC50 was 122 µM in the data set on MCF7, 220 µM in the data set with UACC62, 39.2 µM with NCIADR and 122 µM with NCI460.
Take `CC(=O)C(=C/C=C(\Cl)c1ccc(C#C[C@@H]2O[C@H](CO)[C@@H](O)[C@H](O)[C@@H]2O)cc1)C(C)=O` [Compound 18B, 3-((Z)-3-chloro-3-(4-(2-((2S,3R,4R,5R)-tetrahydro-3,4,5-trihydroxy-6-(Hydroxymethy)-2H-pyran-2-il)ethynyl)phenyl)allilideno)pentano-2,4-dione]: the IC50 was 0.453 µM in data set [3], 0.445 µM in [4] and 0.431 µM in [6]. Further, the CI50% Normal cells in [5] stood at 0.293 µM.
Take `COc1ccc(/C=C/C(Cl)=C/C=O)cc1OC` [Compound 23, (4E)-3-chloro-5-(3,4-dimethoxyphenyl)penta-2,4-dienal]: the IC50 in [3] was 3.32 µM; in data set [4], 15 µM; in data set [6], 22.1 µM; in data set [8] it was 54.6 µM. The figures for the “CI50% Normal cells” value in data set [7] and in data set [5] were 53.33 µM and 30.1 µM, respectively.
Regarding `COc1ccc(/C=C/C(Cl)=C/C=C(C(C)=O)C(C)=O)cc1OC` [Compound 24, 3-((2Z,4E)-3-chloro-5-(3,4-dimethoxyphenyl)penta-2,4-dien-ylidene)pentane-2,4-dione], the “CI50% Normal cells” value in [7] came out at 61.80 µM; in [5] it was 114 µM.

Source of the values: patent US20230130823A1, “PROCESS FOR THE PRODUCTION OF ANTITUMOUR PHARMACEUTICAL COMPOSITIONS USING PUSH-PULL BUTADIENES, COMPOUNDS AND USES THEREOF” (ANHANGUERA EDUCACIONAL PARTICIPAÇÕES S/A, priority 2019, published 2023).
